Source: patent publication US20240085429A1, “ALTERING PROTEIN FUNCTION BY PHARMACOLOGICAL TARGETING OF MEMBRANE DOMAINS” (University of Virginia Patent Foundation, priority 2021, published 2024)
Structures can show the parent of a compound that is named as a salt.

How the values were obtained:
Design in all cases: species or system human
[1] = test system: GPMVs isolated from HeLa cells; assay: High-throughput screen of the Cayman bioactive lipid library for effects on GPMV phase behavior (% phase separated vesicles, NBD-DSPE phase preference); details: for Effect on % phase separated vesicles: final drug concentration 1 μM, NBD-DSPE channel; for % phase separated z-score / Pordered z-score: Table 4; for Pordered z-score: NBD-DSPE
Procedure: This approach is not practical for high throughput screening applications, which typically are performed at a single temperature. Changes in the percentage of phase-separated GPMVs were monitored at a single temperature in response to the addition of small molecules as a surrogate for measuring Tmisc directly (FIG. 1A). This approach requires that a significant fraction of GPMVs are phase separated under control conditions, such that experimentally-induced changes can be readily detected.
In phase separated vesicles these markers are enriched in their preferred domains, such that a given vesicle contains a co-existing NBD-DSPE-rich phase and a DiD-rich phase. In contrast, NBD-DSPE and DiD colocalize in a single uniform phase in GPMVs that are not phase separated. We also optimized conditions to isolate and plate GPMVs in multi-well plates.
To provide proof-of-concept, the Cayman lipid library containing ˜850 bioactive lipid-like compounds in the Vanderbilt High-throughput Screening Facility was screened, using […] of each compound across three independent screens. All screens were carried out using an automated microscope/high-content imaging system and robotic plate handler at RT. […] Compounds were initially scored based on their capacity to alter the percentage of phase separated vesicles (FIG. 2A).
HeLa cells were obtained from ATCC (cat #CCL-2) and cultured at 37° C. in 5% CO2 in a humidified tissue culture incubator. […] In brief, cells were plated in 150 mm tissue culture dishes the day before the experiment, to yield a confluence of 70-80% the day of the experiment. To generate GPMVs, cells were rinsed twice in 10 ml of GPMV buffer (2 mM DTT, 25 mM formaldehyde, 150 mM NaCl, 10 mM HEPES, 2 mM CaCl2), pH=7.4) and subsequently incubated in 12 ml of GPMV buffer at 37° C. with gentle shaking at 70 rpm for 1.5 h. The raft marker NBD-DSPE (1,2-distearoyl-sn-glycero-3-phosphoethanolamine-N-(7-nitro-2-1,3-benzoxadiazol-4-yl; Avanti Polar Lipids) and the non-raft marker DiD (1,1′-dioctadecyl-3,3,3′,3′-tetramethylindodicarbocyanine perchlorate; cat #D307 Thermo Scientific) were added from stock solutions in ethanol to the GPMV suspension at final concentrations of 5-6 μg/ml and 1 μg/ml, respectively, for the initial screenings. For some experiments, cells were prelabelled with 5 μg/ml DiD for 8 min at 4° C. and washed several times prior to GPMVs generation. Screening was performed the same day that GPMVs were generated.
[…] GPMVs suspension in GPMV buffer was then added to each well of a 96-well plate to obtain a final drug concentration of 1 μM. The GPMVs were allowed to settle to the bottom of the plates for 1.5 h prior to imaging. Samples were prepared and imaged at RT. The screen was repeated on three different days using three separately prepared batches of GPMVs (3 biological replicates).
Image acquisition was performed with an ImageXpress Micro XL automated microscope (Molecular Devices) using a Nikon 40X 0.6 NA Super Plan Fluor ELWD objective and a Lumencor Sola solid-state light source. Laser autofocus was employed at each site to obtain the best focus z-plane for each channel. […] Sixteen sites were captured per well using a 4.2 MP widefield scientific cMOS camera with a camera binning of 1. Each plate took approximately 1.3 h to image. Multiple plates were loaded to a plate carousel (ThermoScientific), shuttled to/from the ImageXpress via a ThermoScientific CRS F3 robot arm, and automatically run through the Momentum scheduling software (Thermo). To analyze the data, images and metadata were exported as TIFF files and subjected to image analysis using a custom MATLAB-based program as described below.

[2] = test system: GPMVs from HeLa cells; assay: Assay robustness, SSMD* based on % phase separated GPMVs; details: for SSMD* based on percentage of phase separated GPMVs: 10 mM (so in the source) vs DMSO, mean±SD, n=3; for SSMD* effect size class: classification per Zhang, 2011
Procedure: GPMVs were prepared as described above and incubated for 2 hours at RT. They were then seeded into a flat bottom, black-walled 96-well plates (Greiner Bio-One, Kremsmunster, Austria) coated with 0.1% bovine serum albumin and pre-loaded in a checkerboard pattern with DMSO, 10 mM TLCK, or 10 mM C6 ceramide (FIG. 12A). GPMVs were imaged using the ImageXpress Micro XL automated imager using a Nikon 40× super plan fluor ELWD objective and analyzed using the software described above to determine the percentage of phase separated vesicles in each well (FIG. 12B). An estimate for robust strictly standardized mean difference (SSMD*) (Zhang, X. D., Genomics 2007, 89 (4), 552-611; Zhang, X. D., et al., J Biomol Screen 2011, 16 (7), 775-85) was then calculated based on the percentage of phase separated vesicles per well as reported in the NBD-DSPE channel according to the following equation: […]
Here, XP and XN represent the medians of the percentage of phase separated vesicles for the positive controls (C6 ceramide or TLCK) and negative control (DMSO), respectively, whereas śP and śN correspond to the absolute deviations from the median for the positive and negative controls. Three independent GPMV preparations were analyzed on separate days to evaluate reproducibility (FIG. 12C).

[3] = test system: GPMVs generated from HeLa cells; assay: Tmisc measurements (temperature scan of % phase separated GPMVs); details: 1 μM C6 ceramide or 10 μM TLCK, 2 independent experiments
Procedure: GPMVs were generated from HeLa cells and either labelled with NBD-DSPE and DiI as described above (TLCK experiments) or labelled with DiI-C12 (C6-cermide experiments). They were then treated with 1 μM C6 ceramide (Sigma Aldrich) or 10 μM TLCK (Cayman) for 1-2 h, mounted in a chamber formed from two coverslips separated by a silicon spacer in the continued presence of drug or an equivalent volume of DMSO (final concentration=0.1 mol %), and allowed to settle for 1 h prior to being imaged.
Tmisc measurements for GPMVs treated with C6-ceramide were performed using a Zeiss LSM 510 confocal microscope. […] DiI-C12 fluorescence was excited using the 543 nm line of a HeNe laser and images were collected at 1× digital zoom. […] For these datasets, the number of phase separated GPMVs was scored manually. […]
Tmisc measurements for GPMVs treated with TLCK were performed using a Zeiss A880 confocal microscope. […] NBD-DSPE fluorescence was excited using a 458 Argon laser line and detected using a 458/548 dichroic and 482-614 nm band pass filter. DiD fluorescence was excited using a 633 nm HeNe laser and emission was collected using a 633/698.5 dichroic and a 638-759 nm band pass filter. […] For these datasets, the percentages of phase separated GPMVs were scored using the “colocalization” method using the MATLAB algorithm described above. […]

SMILES | Effect on % phase separated vesicles ([1]; HeLa GPMVs, RT) | % phase separated z-score ([1]; HeLa GPMVs, final 1 μM, RT) | Pordered z-score ([1]; HeLa GPMVs, final 1 μM, RT) | SSMD* based on percentage of phase separated GPMVs [2] | SSMD* effect size class [2] | change in Tmisc relative to DMSO [3] | Effect on Pang(ϕ) ([1]; NBD-DSPE raft phase preference, HeLa GPMVs, final 1 μM, RT) | raft modulation in the GPMV model ([1]; screen result in words)
CCCCCCCCCCCCC/C=C/[C@@H](O)[C@H](CO)NC(=O)CCCCC [C6 Ceramide (d18:1/6:0)] | ↓ | −3.01 | 0.76 | 8.84±2.65 | extremely strong | lowered Tmisc |  | 
Cc1ccc(S(=O)(=O)N[C@@H](CCCCN)C(=O)CCl)cc1 [TLCK hydrochloride, Nα-Tosyl-Lys Chloromethyl Ketone] | ↑ | 6.73 | 5.69 | 1.34±0.29 | moderate | increased Tmisc | ↑ | potent raft stabilizer
